This note sets out measurements from ChEMBL document CHEMBL5046261, “Flavonostilbenes Isolated from the Stems of Rhamnoneuron balansae as Potential SIRT1 Activators” (J Nat Prod, 2022).

The target of data set [1] is T1, NAD-dependent protein deacetylase sirtuin-1 (Homo sapiens) (UniProt Q96EB6).
T1 sequence (whole entry): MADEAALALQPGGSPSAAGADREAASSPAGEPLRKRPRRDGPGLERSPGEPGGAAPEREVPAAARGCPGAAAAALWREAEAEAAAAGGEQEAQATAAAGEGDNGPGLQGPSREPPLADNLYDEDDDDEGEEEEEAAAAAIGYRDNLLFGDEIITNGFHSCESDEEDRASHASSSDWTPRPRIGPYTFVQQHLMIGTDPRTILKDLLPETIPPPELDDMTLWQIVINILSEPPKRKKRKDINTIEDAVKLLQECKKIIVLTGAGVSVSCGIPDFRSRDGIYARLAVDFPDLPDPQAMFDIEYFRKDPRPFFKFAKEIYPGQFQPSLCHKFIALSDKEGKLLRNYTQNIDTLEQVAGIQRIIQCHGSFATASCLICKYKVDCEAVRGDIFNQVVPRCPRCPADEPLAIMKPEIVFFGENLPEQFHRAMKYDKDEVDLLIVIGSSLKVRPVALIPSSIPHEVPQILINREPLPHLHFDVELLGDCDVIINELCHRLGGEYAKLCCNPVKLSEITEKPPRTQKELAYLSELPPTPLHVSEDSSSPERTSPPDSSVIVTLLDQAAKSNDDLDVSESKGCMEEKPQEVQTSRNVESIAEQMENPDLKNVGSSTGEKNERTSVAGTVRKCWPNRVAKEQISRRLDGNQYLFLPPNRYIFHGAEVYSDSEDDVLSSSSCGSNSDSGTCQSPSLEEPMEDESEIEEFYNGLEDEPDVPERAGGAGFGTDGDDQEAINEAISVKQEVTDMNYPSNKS
Put plainly: Activation of SIRT1 (unknown origin) expressed in human HEK293 cells assessed as decrease in p53 transcriptional activity at 20 uM measured after 24 hrs by luciferase reporter gene assay. Type of data set: cell-based. The note with it: filed as activator. Background: In a reporter assay the amount or activity of a reporter protein is the signal.

Data set [2] deals with HEK293. Put plainly: Cytotoxicity against human HEK293 cells assessed as cell viability at 20 uM measured after 24 hrs by MTT assay. Type of data set: toxicity, cell-based. Conditions: hek293, 24 h. On the technique in general: Tetrazolium assays rely on reduction of a dye to a coloured formazan, in cell work by metabolically active cells.
For data set [3], the target named is T1, NAD-dependent protein deacetylase sirtuin-1 (Homo sapiens). Put plainly: Activation of SIRT1 (unknown origin) expressed in human HEK293 cells assessed as increase in NAD+/NADH ratio at 10 to 40 uM in presence of NAD+ as substrate incubated for 12 hrs by NAD+/NADH assay based fluorescence microplate reader. The note with it: filed as activator, dose 10-40 µM. Type of data set: cell-based.

Data set [4] shares this target. Put plainly: Activation of SIRT1 (unknown origin) expressed in human HEK293 cells assessed as decrease in luciferase activity at 20 uM measured after 24 hrs by luciferase reporter gene assay. Type of data set: cell-based. The note with it: filed as activator.
The subject of data set [5] is C2C12. Put plainly: Effect on AMPK in mouse C2C12 myotubes assessed as increase in AMPK-alpha phosphorylation at Thr172 at 5 to 10 uM measured after 1 hrs by western blot analysis. Type of data set: functional, cell-based. Conditions: dose 5-10 µM. A general note: A western blot detects proteins with antibodies after separation by electrophoresis.
Data set [6] deals with T1, NAD-dependent protein deacetylase sirtuin-1 (Homo sapiens). Put plainly: Activation of SIRT1 (unknown origin) expressed in human HEK293 cells assessed as increase intracellular NAD+ level at 10 uM in presence of NAD+ as substrate incubated for 12 hrs by NAD+/NADH assay based fluorescence microplate reader. Format: cell-based. The note with it: filed as activator.
The test system of data set [7] is C2C12. Put plainly: Cytotoxicity against mouse C2C12 myotubes assessed as cell viability at 10 to 40 uM measured after 24 hrs by MTT assay. Format: toxicity, cell-based. The note with it: c2c12, 24 h, dose 10-40 µM.
Data set [8] deals with T1, NAD-dependent protein deacetylase sirtuin-1 (Homo sapiens). Put plainly: Activation of SIRT1 (unknown origin) expressed in human HEK293 cells assessed as decrease in luciferase activity at 5 uM measured after 24 hrs by luciferase reporter gene assay. Format: cell-based. The note with it: filed as activator.
For data set [9] the target is unchanged. Put plainly: Activation of SIRT1 (unknown origin) expressed in human HEK293 cells assessed as increase in deacetylase activity from 1.25 to 20 uM measured after 24 hrs by luciferase reporter gene assay. Conditions: filed as activator, dose 1.25-20 µM. Format: cell-based.
For data set [10] the target is unchanged. Put plainly: Activation of SIRT1 (unknown origin) expressed in human HEK293 cells assessed as increase intracellular NAD+ level at 20 uM in presence of NAD+ as substrate incubated for 12 hrs by NAD+/NADH assay based fluorescence microplate reader. Type of data set: cell-based. Conditions: filed as activator.
The subject of data set [11] is C2C12. Put plainly: Effect on AMPK in mouse C2C12 myotubes assessed as increase in AMPK-alpha phosphorylation at Thr172 at 1 mM measured after 1 hrs by western blot analysis. Format: functional, cell-based.

Active and inactive are the calls of the source. No cut-off for these calls is given here.

Take `O=c1c(O)c(-c2ccc(O)cc2)oc2cc(O)c(-c3cc(/C=C/c4cc(O)cc(O)c4)ccc3O)c(O)c12`: the outcome in [1] was Active. Also, the Activity result in [2] is “Non-Toxic”.

In the case of `O=C1c2c(O)cc3c(c2O[C@@H](c2ccc(O)cc2)[C@@H]1O)[C@H](c1cc(O)cc(O)c1)[C@@H](c1ccc(O)cc1)O3`, in [2], the Activity result is given as “Non-Toxic”.

For `O=c1c(O)c(-c2ccc(O)cc2)oc2cc3c(c(O)c12)[C@@H](c1cc(O)cc(O)c1)[C@@H](c1ccc(O)cc1)O3`, the Activity entry in data set [2] is on record as “Non-Toxic”.

Regarding `Oc1ccc(/C=C/c2cc(O)cc(O)c2)cc1`, in data set [3], the Activity result was “Dose-Dependent Effect”. Moreover, the outcome in data set [4] was Active.

`O=c1c(O)c(-c2ccc(O)c(O)c2)oc2cc3c(c(O)c12)[C@@H](c1cc(O)cc(O)c1)[C@H](c1ccc(O)cc1)O3`: the Activity result in data set [2] was “Non-Toxic”.

On to `O=c1c(O)c(-c2ccc(O)cc2)oc2cc3c(c(O)c12)[C@@H](c1cc(O)cc(O)c1)[C@H](c1ccc(O)cc1)O3`, for which the Activity entry in [2] is on record as “Non-Toxic”.

Consider `O=c1c(O)c(-c2ccc(O)cc2)oc2c(-c3cc(/C=C/c4cc(O)cc(O)c4)ccc3O)c(O)cc(O)c12`, for which, in data set [1], the outcome was Active. Also, the Activity result in data set [2] was “Non-Toxic”.

In the case of `O=c1c(O)c(-c2cc(O)c(O)c(O)c2)oc2c3c(cc(O)c12)O[C@H](c1ccc(O)cc1)[C@H]3c1cc(O)cc(O)c1`, the Activity entry in data set [2] was “Non-Toxic”.

Consider `O=c1c(O)c(-c2ccc(O)cc2)oc2c3c(cc(O)c12)O[C@@H](c1ccc(O)cc1)[C@H]3c1cc(O)cc(O)c1`, for which, in [2], the Activity result was “Non-Toxic”.

With `O=C1c2c(O)cc(O)c(-c3cc(/C=C/c4cc(O)cc(O)c4)ccc3O)c2O[C@H](c2ccc(O)cc2)[C@H]1O`, the outcome in data set [1], in [5], in data set [6], in [8] and in data set [10] was Active. For the same compound, the Activity entry is “Non-Toxic” in data set [2], “Non-Toxic” in [7] and “Dose-Dependent Effect” in data set [9].

In the case of `O=C1c2c(cc(O)c(-c3cc(/C=C/c4cc(O)cc(O)c4)ccc3O)c2O)O[C@H](c2ccc(O)c(O)c2)[C@H]1O`, the result in data set [1] was Active. The Activity entry in [2] is on record as “Non-Toxic”.

As for `O=c1c(O)c(-c2ccc(O)c(O)c2)oc2c(-c3cc(/C=C/c4cc(O)cc(O)c4)ccc3O)c(O)cc(O)c12`, the outcome in data set [1] was Active. Further, in data set [2], the Activity entry was “Non-Toxic”.

For the compound `NC(=O)c1ncn([C@@H]2O[C@H](CO)[C@@H](O)[C@H]2O)c1N`, in data set [11], the result was Active.
